Consider 35 compounds from patent USRE36831E, “Iron-pyridone complexes for anemia” (priority 1983, dated 2000).

Some results are limits rather than exact numbers.

One data set concerns haemoglobin. As to the kind of experiment: Ability of complexes to bind to haemoglobin (elution profile of 59Fe label on PD-10 column). The settings on record: 59Fe-labelled 3:1 neutral complex, 1 mM. Type of data set: binding. The method, then: The ability of the complexes of 1-acetyl-3-hydroxypyrid-2-one and 1-ethyl-3-hydroxy-6-hydroxymethylpyrid-4-one to bind to haemoglobin is investigated by studying the elution profile of a ^59 Fe label when a mixture of haemoglobin and the ^59 Fe-labelled 3:1 (pyridone:iron) neutral complex (at 1 mM concentration) is applied to a PD-10 column (Sephadex […] gel permeation column - Pharmacia).
For `CC(=O)n1cccc([O-])c1=O.CC(=O)n1cccc([O-])c1=O.CC(=O)n1cccc([O-])c1=O.[Fe+3]` [Fe^III complex of 1-acetyl-3-hydroxypyrid-2-one], the haemoglobin binding ability entry is given as “no detectable haemoglobin binding ability”.
On the same count and under the same terms, then `CCn1cc([O-])c(=O)cc1CO.CCn1cc([O-])c(=O)cc1CO.CCn1cc([O-])c(=O)cc1CO.[Fe+3]` [Fe^III complex of 1-ethyl-3-hydroxy-6-hydroxymethylpyrid-4-one], with “no detectable haemoglobin binding ability”.

Another data set relates to human erythrocytes.
Assay: not given
The note with it: pH 7.4.
With `Cc1c([O-])c(=O)ccn1CCN.Cc1c([O-])c(=O)ccn1CCN.Cc1c([O-])c(=O)ccn1CCN.[Fe+3]` [Fe^III complex of 1-(2'-aminoethyl)-3-hydroxy-2-methylpyrid-4-one], the “Amount of complex entering erythrocytes” value is reported as below 5 n.mole.
On the same count and under the same terms, as for `Cc1c([O-])c(=O)ccn1CCC(=O)O.Cc1c([O-])c(=O)ccn1CCC(=O)O.Cc1c([O-])c(=O)ccn1CCC(=O)O.[Fe+3]` [Fe^III complex of 1-(2'-carboxyethyl)-3-hydroxy-2-methylpyrid-4-one], the figure is 19 n.mole; as for `CCCCNC(=O)Cn1cccc([O-])c1=O.CCCCNC(=O)Cn1cccc([O-])c1=O.CCCCNC(=O)Cn1cccc([O-])c1=O.[Fe+3]` [Fe^III complex of 1-(N-butylcarbamoylmethyl)-3-hydroxypyrid-2-one], 105 n.mole; as for `CC(=O)n1cccc([O-])c1=O.CC(=O)n1cccc([O-])c1=O.CC(=O)n1cccc([O-])c1=O.[Fe+3]` [Fe^III complex of 1-acetyl-3-hydroxypyrid-2-one], 240 n.mole.
Take `O=C(O)Cn1cccc([O-])c1=O.O=C(O)Cn1cccc([O-])c1=O.O=C(O)Cn1cccc([O-])c1=O.[Fe+3]` [Fe^III complex of 1-carboxymethyl-3-hydroxypyrid-2-one]: the “Amount of complex entering erythrocytes” value is given as below 5 n.mole.
Take `CCOC(=O)Cn1cccc([O-])c1=O.CCOC(=O)Cn1cccc([O-])c1=O.CCOC(=O)Cn1cccc([O-])c1=O.[Fe+3]` [Fe^III complex of 1-ethoxycarbonylmethyl-3-hydroxypyrid-2-one]: the “Amount of complex entering erythrocytes” value is listed as 10 n.mole.
As to `CCn1cc([O-])c(=O)cc1CO.CCn1cc([O-])c(=O)cc1CO.CCn1cc([O-])c(=O)cc1CO.[Fe+3]` [Fe^III complex of 1-ethyl-3-hydroxy-6-hydroxymethylpyrid-4-one], the “Amount of complex entering erythrocytes” value came out at 26 n.mole.
For the compound `Cc1c([O-])c(=O)ccn1CCO.Cc1c([O-])c(=O)ccn1CCO.Cc1c([O-])c(=O)ccn1CCO.[Fe+3]` [Fe^III complex of 3-hydroxy-1-(2'-hydroxyethyl)-2-methylpyrid-4-one], the “Amount of complex entering erythrocytes” value is below 5 n.mole.
With `COC(=O)CCn1ccc(=O)c([O-])c1C.COC(=O)CCn1ccc(=O)c([O-])c1C.COC(=O)CCn1ccc(=O)c([O-])c1C.[Fe+3]` [Fe^III complex of 3-hydroxy-1-(2'-methoxycarbonylethyl)-2-methylpyrid-4-one], the “Amount of complex entering erythrocytes” value came out at 25 n.mole.
In the case of `Cc1c([O-])c(=O)ccn1CCCO.Cc1c([O-])c(=O)ccn1CCCO.Cc1c([O-])c(=O)ccn1CCCO.[Fe+3]` [Fe^III complex of 3-hydroxy-1-(3'-hydroxypropyl)-2-methylpyrid-4-one], the “Amount of complex entering erythrocytes” value is on record as 30 n.mole.
Turning to `Cc1c([O-])c(=O)ccn1CCCCO.Cc1c([O-])c(=O)ccn1CCCCO.Cc1c([O-])c(=O)ccn1CCCCO.[Fe+3]` [Fe^III complex of 3-hydroxy-1-(4'-hydroxybutyl)-2-methylpyrid-4-one], the “Amount of complex entering erythrocytes” value came out at 40 n.mole.
For `Cc1c([O-])c(=O)ccn1CCCCCO.Cc1c([O-])c(=O)ccn1CCCCCO.Cc1c([O-])c(=O)ccn1CCCCCO.[Fe+3]` [Fe^III complex of 3-hydroxy-1-(5'-hydroxypentyl)-2-methylpyrid-4-one], the “Amount of complex entering erythrocytes” value amounted to 44 n.mole.
Still for that read-out and setting: then `CC(C)NC(=O)Cn1cccc([O-])c1=O.CC(C)NC(=O)Cn1cccc([O-])c1=O.CC(C)NC(=O)Cn1cccc([O-])c1=O.[Fe+3]` [Fe^III complex of 3-hydroxy-1-[N-(2'-methylethyl)-carbamoylmethyl]-pyrid-2-one], with 52 n.mole.
For `COC(=O)Cn1cccc([O-])c1=O.COC(=O)Cn1cccc([O-])c1=O.COC(=O)Cn1cccc([O-])c1=O.[Fe+3]` [Fe^III complex of 3-hydroxy-1-methoxycarbonylmethylpyrid-2-one], the “Amount of complex entering erythrocytes” value was 230 n.mole.
Turning to `Cn1cc([O-])c(=O)cc1CO.Cn1cc([O-])c(=O)cc1CO.Cn1cc([O-])c(=O)cc1CO.[Fe+3]` [Fe^III complex of 3-hydroxy-6-hydroxymethyl-1-methylpyrid-4-one], the “Amount of complex entering erythrocytes” value is reported as below 5 n.mole.
In the case of “Fe^III complex of 1-carboxymethyl-3-hydroxy-2-methylpyrid-4-one”, the “Amount of complex entering erythrocytes” value is below 5 n.mole.

Tested on in a further data set: not given
Assay: not given
The settings on record: n-octanol/tris buffer, 100 µM, pH 7.4.
With “3-hydroxy-5-hydroxymethyl-1-methylpyrid-4-one”, the “Partition coefficient KOUT, free compound” value was 0.03.

The subject of the next data set is apotransferrin. Put plainly: Ability of iron complexes to donate iron to apotransferrin. Type of data set: biochemical. The note with it: apotransferrin 10^-4 M, complex 10^-4 M, tris 50 mM pH 7.4, 37° C., 10 minutes. The method, then:
Apotransferrin (10^-4 M) and the iron complex of 1-ethyl-3-hydroxy-6-hydroxymethylpyrid-4-one (10^-4 M; prepared as described in Example 1) were incubated together in tris hydrochloride (50 mM, buffered to pH 7.4) at 37° C. for 10 minutes when a 1 ml aliquot was removed from the medium and added to a PD10 column. 0.5 ml fractions were collected directly into scintillation vials for counting. […] A similar value was obtained with the complex of 3-hydroxy-1-(2'-hydroxyethyl)-2-methylpyrid-4-one but with the complex of 1-acetyl-3-hydroxypyrid-2-one over 80% of the iron was removed within 10 minutes.
With `CC(=O)n1cccc([O-])c1=O.CC(=O)n1cccc([O-])c1=O.CC(=O)n1cccc([O-])c1=O.[Fe+3]` [Fe^III complex of 1-acetyl-3-hydroxypyrid-2-one], the “iron removed from the iron complex” value is given as “over 80%”.
Take `CCn1cc([O-])c(=O)cc1CO.CCn1cc([O-])c(=O)cc1CO.CCn1cc([O-])c(=O)cc1CO.[Fe+3]` [Fe^III complex of 1-ethyl-3-hydroxy-6-hydroxymethylpyrid-4-one]: the “iron removed from the iron complex” value is recorded as “over 45%”.

Tested on in the next data set: not listed separately
As to the kind of experiment: physchem. The settings on record: n-octanol/tris buffer, pH 7.4.
Protocol: (§1) The partition coefficient Kpart, being the ratio (concentration of compound in n-octanol)/(concentration of compound in aqueous phase) on partition between n-octanol and aqueous tris hydrochloride (20 mM, pH 7.4; tris represents 2-amino-2-hydroxymethylpropane 1,3-diol), is measured at 20° C. for the 3:1 iron(III) complexes of each of the compounds listed in Table 1 and also for the iron-free compound (at 10^-4 M) by spectrophotometry. The solutions of the complexes are either produced by dissolving the pre-formed complex in the aqueous tris hydrochloride or are prepared in situ in the buffer by the admixture of a 3:1 molar ratio of the pyridone and ferric chloride, the pH thereafter being readjusted to 7.4 if necessary (the same product will be obtained in the buffer solution irrespective of whether the pyridone used is in a salt form or not). Acid washed glassware is used throughout and, following mixing of 5 ml of the 10^-4 M aqueous solution with 5 ml of n-octanol for 1 minute, the aqueous n-octanol mixture is centrifuged at 1,000 g for 30 seconds. The two resulting phases are separated for a concentration determination by spectrophotometry on each. For the free hydroxypyridones, the range 220-340 nm is used for concentration determinations whilst for the iron complexes the range 340-640 nm is used.
The compound `Cc1c(O)c(=O)ccn1CCN` [1-(2'-aminoethyl)-3-hydroxy-2-methylpyrid-4-one] showed a log distribution coefficient (logD) at 100 µM below -2.7.
With `Cc1c(O)c(=O)ccn1CCC(=O)O` [1-(2'-carboxyethyl)-3-hydroxy-2-methylpyrid-4-one], the logD at 100 µM is -0.347.
With `CC(=O)OCCCCCn1ccc(=O)c(O)c1C` [1-(5'-acetoxypentyl)-3-hydroxy-2-methylpyrid-4-one], the logD at 100 µM is -0.347.
Turning to `CC(=O)n1cccc(O)c1=O` [1-acetyl-3-hydroxypyrid-2-one], the logD at 100 µM is -0.26.
On to `Cc1c(O)c(=O)ccn1CC(=O)O` [1-carboxymethyl-3-hydroxy-2-methylpyrid-4-one], for which the pH-dependent lipophilicity (logD) at 100 µM was below -2.7.
Take `CCOC(=O)Cn1cccc(O)c1=O` [1-ethoxycarbonylmethyl-3-hydroxypyrid-2-one]: the logD at 100 µM is -0.301.
`CCn1cc(O)c(=O)cc1CO` [1-ethyl-3-hydroxy-6-hydroxymethylpyrid-4-one] showed a logD at 100 µM of -1.22.
The compound `Cc1c(O)c(=O)ccn1CCCCCO` [3-hydroxy-1-(5'-hydroxypentyl)-2-methylpyrid-4-one] showed a logD at 100 µM of -0.553.
The same measure, in the same setting: as for `COC(=O)Cn1cccc(O)c1=O` [3-hydroxy-1-methoxycarbonylmethylpyrid-2-one], the figure is -0.699.

Tested on in the next data set: not listed separately
Put plainly: Partition coefficient between n-octanol and aqueous tris hydrochloride (20 mM, pH 7.4) at 20° C. The settings on record: free compound, 10^-4 M; n-octanol/tris hydrochloride 20 mM pH 7.4, 20° C.
Protocol: as §1
With `CCCCNC(=O)Cn1cccc(O)c1=O` [1-(N-butylcarbamoylmethyl)-3-hydroxypyrid-2-one], the “Partition coefficient KOUT, free compound” value worked out at 1.89.
For `CCNC(=O)Cn1cccc(O)c1=O` [1-(N-ethylcarbamoylmethyl)-3-hydroxypyrid-2-one], the “Partition coefficient KOUT, free compound” value was 0.12.
In the case of `CNC(=O)Cn1cccc(O)c1=O` [3-hydroxy-1-(N-methylcarbamoylmethyl)pyrid-2-one], the “Partition coefficient KOUT, free compound” value is listed as 0.06.
Take `CCCNC(=O)Cn1cccc(O)c1=O` [3-hydroxy-1-(N-propylcarbamoylmethyl)-pyrid-2-one]: the “Partition coefficient KOUT, free compound” value is 0.35.
On to `CC(C)NC(=O)Cn1cccc(O)c1=O` [3-hydroxy-1-[N-(2'-methylethyl)-carbamoylmethyl]-pyrid-2-one], for which the “Partition coefficient KOUT, free compound” value is given as 0.34.

Still in this data set, the particulars now being: n-octanol partition, in words.
`Cc1c([O-])c(=O)ccn1CCN.Cc1c([O-])c(=O)ccn1CCN.Cc1c([O-])c(=O)ccn1CCN.[Fe+3]` [Fe^III complex of 1-(2'-aminoethyl)-3-hydroxy-2-methylpyrid-4-one]: the “Kpart values (in words)” value is “low Kpart values”.
On the same count and under the same terms, as for “Fe^III complex of 1-carboxymethyl-3-hydroxy-2-methylpyrid-4-one”, the entry is “low Kpart values”.

The data set is the same for the next values; noted with them: n-octanol/tris buffer, pH 7.4.
As for `Cc1c(O)c(=O)ccn1CCO` [3-hydroxy-1-(2'-hydroxyethyl)-2-methylpyrid-4-one], the log distribution coefficient (logD) at 100 µM was below -2.7.
Regarding `Cc1c(O)c(=O)ccn1CCCCO` [3-hydroxy-1-(4'-hydroxybutyl)-2-methylpyrid-4-one], the logD at 100 µM was -0.854.

Another data set concerns inverted rat jejunal sac. Put plainly: In vitro permeation of rat jejunal sac by iron complexes (iron uptake into serosal space). The settings on record: relative to ferric chloride as 1; Krebs Ringer buffer, 37° C., up to 1 hour. From the text:
Rats (male Sprague Dawley, 60 g) were killed and the jejunum removed, everted and cut into three segments (4 cm length). […] The contents of the sac were counted for ^59 Fe and measured spectrophotometrically.
Consider `[Cl][Fe]([Cl])[Cl]` [FeCl3, ferric chloride], for which the “Relative Iron Uptake” value was 1.
Turning to `O=C([O-])[C@H](O)[C@@H](O)[C@H](O)[C@H](O)CO.O=C([O-])[C@H](O)[C@@H](O)[C@H](O)[C@H](O)CO.[Fe+2]` [Fe^II gluconate], the “Relative Iron Uptake” value is reported as 1.6.

The term logD denotes lipophilicity at a set pH, counting ionised and neutral species. Read a low logD as a more hydrophilic compound.
